One block for each compound: values may come before it.
Legend:
[1] = biological target: T1, serine racemase (Rattus norvegicus, UniProt Q76EQ0); assay: Substrate specificity of serine racemase; type: biochemical; conditions: for Specific activity / % control: 20 mM L-amino acids; for Specific activity: 37° C., pH 8.0, 8 h, HPLC; for Racemase activity with the amino acid: purified enzyme; for % control: activity relative to L-serine, 8 h
T1 construct: the rat brain enzyme we have purified; from tissue; host or cells: rat brain (10–14 day old Sprague-Dawley rats)
T1 sequence (Q76EQ0 1-333): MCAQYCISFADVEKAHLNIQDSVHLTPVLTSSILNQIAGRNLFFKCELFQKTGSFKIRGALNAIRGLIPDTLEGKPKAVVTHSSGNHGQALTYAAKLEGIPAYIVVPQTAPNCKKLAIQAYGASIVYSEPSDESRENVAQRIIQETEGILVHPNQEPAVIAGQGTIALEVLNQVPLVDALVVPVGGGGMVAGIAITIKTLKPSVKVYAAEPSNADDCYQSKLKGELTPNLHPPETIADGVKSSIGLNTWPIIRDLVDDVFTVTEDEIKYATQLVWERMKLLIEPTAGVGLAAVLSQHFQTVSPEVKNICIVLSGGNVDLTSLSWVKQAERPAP
Protocol: (§1) The generation of hydrogen peroxide was quantitated by the use of peroxidase and luminol, which emits light. A 10 μl sample aliquot was added to 100 μl of medium containing 100 mM Tris-HCl (pH 8.8), 10 U/ml peroxidase, and 8 μM luminol. After a 10 to 20 minute delay required to decrease the nonspecific luminol luminescence, 10 μl of D-amino acid oxidase (75 U/ml) were added, and the tubes were gently mixed with a pipette tip. Maximum luminescence was recorded after 10 to 15 minutes at room temperature using a Monolight 2010 luminometer (Analytical Luminescence Laboratory). The amount of D-serine in each sample was calculated by comparison with standard curves. The measurements were reliable in the range of 50 to 2000 pmol D-serine per sample. […] Alternatively, amino acid enantiomers were separated by high performance liquid chromatography (HPLC) using a carbon 18 reverse phase column (RP18 Spheri-5, 22 cm×4.6 mm, Perkin Elmer) with fluorimetric detection after derivatization with L-Boc-cys and OPA, as described (17). The results obtained with chemiluminescent assay were identical to those obtained using HPLC.
The presence of trace amounts of D-serine in the commercial L-serine reagent generates high blank values. Thus, the stock solution of L-serine (100 mM) was routinely pre-treated for 3 days with 30 units of D-amino acid oxidase and 500 units of catalase to remove any D-serine contaminant. The enzymes were precipitated by the addition of 5% TCA. After removal of TCA by extraction with diethyl ether, the L-serine solution was neutralized with NaOH and could be used without further purification, being virtually free of any D-serine contaminant. The same purification procedure was applied for L-alanine and L-threonine.
Additionally, we examined the purified enzyme for the presence of other enzyme activities which might indirectly contribute to D-serine formation. We found no evidence for serine: pyruvate aminotransferase activity, as L-serine levels were not altered in the presence of pyruvate. […] There is no evidence for serine dehydratase activity which would be associated with a marked decrease in L-serine levels.

[2] = biological target: T1, serine racemase; assay: Inhibition of serine racemase by PLP inhibitors and sulfhydryl oxidation; PLP requirement; type: biochemical; conditions: for Effect on enzyme activity (PLP inhibitors): 37° C., pH 8.0, 20 mM L-serine, 2 mM DTT, 10 μM PLP, different concentrations (FIG. 4A)
Protocol: FIG. 4. inhibition of serine racemase by PLP inhibitors and sulfhydryl oxidation. FIG. 4A. Enzyme activity was monitored at 37° C. in a medium containing 50 mM Tris-HCl (pH 8.0), 20 mM L-serine, 40–100 μg/ml purified enzyme, 1 mM EDTA, 2 mM DTT, 10 μM pyridoxal 5′-phosphate and different concentrations of either aminooxyacetic acid (◯) or hydroxylamine (●). FIG. 4B. Reaction medium and conditions were as described in A, except that DTT was omitted from the last step of the enzyme preparation. The enzyme was preincubated for 10 minutes in the presence of different concentrations of oxidized glutathione (GSSG).
D-serine formation was monitored by a chemiluminescent assay that specifically detects D-serine. Racemase activity was performed in the presence of 50 mM Tris-HCl (pH 8.0), 18 μl enzyme extract, 1 mM EDTA, 2 mM DTT, 15 μM pyridoxal 5′-phosphate (PLP), and 20 mM L-serine. After 0.5 to 8 hours incubation at 37° C., the reaction was terminated by the addition of trichloroacetic acid (TCA) to a final concentration of 5%. Blanks employed boiled enzyme extract. The precipitated protein was removed by centrifugation, and the supernatant was extracted 2 times with 1 ml of water-saturated diethyl ether to remove TCA. D-serine concentration was determined by incubation of the samples with D-amino acid oxidase, which specifically degrades D-amino acids, generating an α-keto acid, NH3 and hydrogen peroxide (16).
as §1, with “HPLC. […]” for “HPLC.”
We wondered whether conversion of L to D-serine might be a by-product of a different enzyme activity with non-enzymatic racemization giving rise to D-serine. Accordingly, we monitored by HPLC levels of L and D-serine at different incubation times (Table 2). […]

[3] = biological target: NMDA receptor "glycine site" (Homo sapiens, UniProt Q05586); conditions: reference 14; cited from earlier work
[4] = biological target: T1, serine racemase; assay: Absorption spectra of purified serine racemase; conditions: 70 μg/ml enzyme preincubated 10 minutes with 1 mM AOAA (FIG. 5)
Protocol: FIG. 5. Absorption spectra of purified serine racemase. Purified enzyme (70 μg/ml) was preincubated for 10 minutes in medium containing 10 mM KPi (pH 7.2), 2 mM DTT, 1 mM EDTA, 10 μM PLP, either in the absence (Control) or in the presence of 1 mM aminooxyacetic acid (AOAA). The distinct peaks of absorbance at 420 and 340 nm were not observed in the presence of buffer alone or when bovine serum albumin was used instead of serine racemase.
For most applications the purified protein was further concentrated using centriplus 30. Protein concentration was determined with Coomassie plus protein assay reagent (Pierce). Enzyme-bound PLP was determined at room temperature by recording the absorbance of the purified protein in the range of 500 to 280 nm using a Lambda Bio spectrophotometer (Perkin Elmer).
Examination of the absorption spectrum of the enzyme confirms the importance of PLP. […] The peak at 420 nm, corresponding to a Schiff's base complex of PLP with an active site lysine, is abolished by treatment with AOAA (FIG. 5).

[5] = biological target: T1, serine racemase; assay: Racemization of L-serine over time, L- and D-serine by HPLC; type: biochemical
Protocol: as §1
We wondered whether conversion of L to D-serine might be a by-product of a different enzyme activity with non-enzymatic racemization giving rise to D-serine. Accordingly, we monitored by HPLC levels of L and D-serine at different incubation times (Table 2). Increases in formation of D-serine are paralleled by stoichiometric decreases in levels of L-serine, making it unlikely that L-serine is converted to any other compound by the enzyme.

[6] = time 0, 4 mM L-serine, 40 μg/ml purified enzyme, 37° C.

Compound: C[C@H](N)C(=O)O [L-alanine]
- Specific activity [1]: 0.012 µmol/mg/h

Compound: NO [hydroxylamine]
- Effect on enzyme activity (PLP inhibitors) [2]: inhibit enzyme activity

Compound: oxidized glutathione
- Effect on enzyme activity (sulfhydryl oxidation) ([2]; DTT omitted, enzyme preincubated for 10 minutes with different concentrations (FIG. 4B)): markedly reduces enzyme activity

Compound: N[C@H](CO)C(=O)O [D-serine]
- Potency relative to glycine at the glycine site [3]: up to three times more potent than glycine

Compound: NOCC(=O)O [Aminooxyacetic acid, aminooxyacetic acid]
- Effect on enzyme activity (PLP inhibitors) [2]: inhibit enzyme activity
- Absorption peak at 420 nm of the enzyme (Schiff's base complex of PLP) [4]: abolished

Next, values leading:

- Specific activity [1]: 0 µmol/mg/h
- Racemase activity with the amino acid [1]: no activity
Compound: C[C@@H](O)[C@H](N)C(=O)O [L-threonine]

- Specific activity [1]: 0 µmol/mg/h
- % control [1]: 0%
- Racemase activity with the amino acid [1]: no activity
Compound: N[C@@H](CC(=O)O)C(=O)O [L-aspartate]

- Enzyme activity after dialysis without PLP, on addition of PLP ([2]; dialysis for 16 hours against 1,000 volumes of purification buffer without PLP): can be restored by the addition of PLP
Compound: Cc1ncc(COP(=O)(O)O)c(C=O)c1O [PLP, pyridoxal 5′-phosphate]

- [D-sertne] [5, 6]: 0.0007 mM
- [L-serine] [5, 6]: 4.00 mM
- [D-sertne] ([5]; time 0.5 h): 0.042 mM
- [L-serine] ([5]; time 0.5 h): 3.96 mM
- [D-sertne] ([5]; time 1 h): 0.101 mM
- [L-serine] ([5]; time 1 h): 3.93 mM
- [D-sertne] ([5]; time 4 h): 0.342 mM
- [L-serine] ([5]; time 4 h): 3.65 mM
- Specific activity [1]: 4.8 µmol/mg/h
- % control [1]: 100%
Compound: N[C@@H](CO)C(=O)O [L-serine]
